Test results from article doi:10.1101/2023.10.02.559746v1 (biorxiv, 2023).

Molecular target: T1, RALY (Homo sapiens, UniProt Q9UKM9)
T1 sequence (Q9UKM9 2-306): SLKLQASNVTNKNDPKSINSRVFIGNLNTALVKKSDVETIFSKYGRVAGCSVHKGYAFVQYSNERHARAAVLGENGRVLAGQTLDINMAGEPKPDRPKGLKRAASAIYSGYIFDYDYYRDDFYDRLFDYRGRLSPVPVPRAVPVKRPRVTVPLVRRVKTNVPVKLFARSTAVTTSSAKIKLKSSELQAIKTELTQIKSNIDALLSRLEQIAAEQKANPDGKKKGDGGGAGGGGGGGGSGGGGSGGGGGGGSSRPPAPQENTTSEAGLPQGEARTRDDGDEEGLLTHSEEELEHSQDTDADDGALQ
Test: surface plasmon resonance imaging
Format: binding

## CC(C)[C@H](CN)NC[C@H](C)NS(=O)(=O)c1ccc(C(C)(C)C)cc1 [2470-51, N-((S)-1-(((R)-1-amino-3-methylbutan-2-yl)amino)propan-2-yl)-4-(tert-butyl)benzenesulfonamide]
  Kd: 15.5 µM
